Measurements reported in article PMC10887108, “Novel Brain-Penetrant, Small-Molecule Tubulin Destabilizers for the Treatment of Glioblastoma” (Biomedicines, 2024).
Converted amounts (≈) assume the structure as drawn. Where two headings read alike, the source gives them in different places.

Assays:
[1] = Kinetic solubility in phosphate buffer; assay type: physicochemical; settings: 100 mM phosphate buffer, 1% DMSO
Method: Kinetic solubility was determined in phosphate buffer. The compound (4 µL, 10 mM DMSO) was added to the buffer (396 μL 100 mM phosphate buffer, final 1% DMSO) and shaken at 1000 rpm at RT for 1 h. Samples were filtered (Millipore MSSLBPC10; Burlington, MA, USA), the primary filtrate was discarded, and the subsequent filtrate was collected. The supernatant solution was diluted 10× with DMSO. Test samples (10 µL) and working standard curve samples were added to the stop solution (100 μL, containing internal standard) and water/0.1% FA (100 μL). Samples were analyzed by LC-MS/MS. Albendazole, propranolol, and 4,5-diphenylimidazole were used as positive controls.

[2] = Plasma protein binding (dialysis); assay type: in vitro ADME; settings: range over mouse, rat, and human plasma
Method: Compounds (5 µM/0.2% DMSO) were tested in dialysis chambers. Blank dialysis buffer was added to the receiver side (100 μL), and plasma (100 μL) with test and reference compounds was added to the donor side of the chamber and incubated at 37 °C on an orbital shaker. Plasma was precipitated at 0 and 5 h. Aliquots from donor and receiver sides of the dialysis apparatus (25 μL) were added to sample preparation plates and mixed with aliquots of the opposite matrix (25 μL, blank buffer to plasma and vice versa). Samples were quenched with stop solution (400 μL) containing internal standard, vortexed at 600 rpm for 10 min, and centrifuged at 4000 rpm for 10 min. Supernatants were analyzed by LC-MS. Quinidine and warfarin were used as positive controls.

[3] = test system: MDR1 (P-gp); experiment: MDR1-MDCK cellular permeability; assay type: in vitro ADME, canine; settings: dog
Method: Cellular permeability was tested using the MDR1-MDCK (multidrug-resistant-1, Madin–Darby canine kidney) cell line. Donor solution was added to a 96-well plate (2 μL, 2 mM compound; 6 μL DMSO in 1992 μL of Hanks’ balanced salt solution [HBSS] buffer) and shaken at 1000 rpm for 10 min (final 0.4% DMSO). Transepithelial electrical resistance (TEER) values were used as a quality control check for monolayer integrity. At 3–5 days post-seeding, each MDCK II cell monolayer was tested to ensure the TEER value was ≥ 83 Ω⋅cm^2. The compound donor working solution was centrifuged (4000 rpm for 5 min) to remove any precipitated compound prior to loading donor chambers. Apical and basolateral plates were warmed at 37 °C for about 5 min prior to the initiation of transport (37 °C, 90 min).
Luciferin marker Lucifer Yellow (150 μL, 50 μM Lucifer Yellow in HBSS, pH 7.4) was added to the apical compartment, and transfer buffer (600 μL) was added to the receiver plate (basolateral compartment) and incubated at 37 °C for 60 min. Apical Lucifer Yellow concentrations for LYT0 and LYT60 were measured by a fluorometer (EX 485/EM 535 nm). Donor and receiver samples were analyzed by LC-MS. Metoprolol, enalapril, and quinidine were used as positive controls. The efflux ratio was calculated as the ratio of apparent permeability (basal-to-apical) and apparent permeability (apical-to-basal).

[4] = test system: HMC3 microglial cells (non-tumorigenic); experiment: alamarBlue cell viability assay, HMC3; assay type: cell-based, human; settings: HMC3, up to 10 μM
Method: Cells (100 µL/well) were seeded in 96-well tissue culture plates (Greiner Bio-One 650090; Kremsmünster, Austria). The plating density (cells/well) for each cell line was as follows: LN-18 (3000), U87 (4000), and HMC3 (5000). After overnight incubation, compounds were added to the cells (50 µL at 3× concentration, final 0.1% DMSO), and plates were incubated for 72 h. Cell viability was assessed by the addition of 25 µL of alamarBlue for a final concentration of 100 µM final concentration (Resazurin redox reagent, Sigma-Aldrich R7017; St. Louis, MO, USA). After a 4 h incubation, fluorescence was read on a CLARIOstar Plus plate reader (BMG Labtech, Ortenberg, Germany) at EX 570/EM 590 nm.

[5] = biological target: T1, porcine tubulin (Sus scrofa, UniProt P02554); experiment: Tubulin polymerization assay (fluorescent reporter); assay type: biochemical; settings: compound 5 μM, porcine tubulin 20 μM, relative to DMSO
T1 construct: purchased Cytoskeleton, Inc. BK011P
Method: Tubulin polymerization was evaluated by monitoring the incorporation of a fluorescent reporter into MTs during polymerization. The tubulin polymerization assay kit (Cytoskeleton, Inc. BK011P; Denver, CO, USA) was used according to the manufacturer’s instructions. Briefly, the tubulin reaction mix was kept on ice until immediately prior to use.
(A,B) Representative tubulin polymerization plots and data quantification. […] (C) Immunofluorescence staining of β-tubulin in U87 glioblastoma cells. […] Images were captured using an Operetta confocal microscope at 40× magnification. Scale bar, 10 μm. […] Data was collected with a BD FACS Canto II Flow Cytometer and analyzed using the BD FACSDiva software. (E) The percentage of cells in G1, S, and G2/M phases from the histograms in (D). Data are plotted as mean ± SD from at least three independent experiments. Analysis between groups in (B) was performed using a one-way ANOVA with Tukey’s multiple comparisons test.

[6] = biological target: T2, Porcine tubulin (colchicine binding site) (Sus scrofa, UniProt P02554); experiment: Colchicine competitive binding assay (fluorescence); settings: compound 50 µM, colchicine 10 μM, tubulin 20 μM
T2 construct: purchased Cytoskeleton, Inc. T240; host or cells: brain tissue (purified)

[7] = test system: U87 cells; experiment: Reversibility (washout) cell viability assay; assay type: cell-based; settings: Homo sapiens, U-87 MG
[8] = Brain pharmacokinetics after oral dosing; assay type: in vivo; settings: 100 mg/kg oral, CD-1 mice, 1, 4 and 8 h
Method: Brain pharmacokinetic studies were carried out by DMPK at WuXi AppTec, Inc. (Cranbury, NJ, USA). The brain penetrance of RGN3067 was evaluated in three male CD-1 mice. RGN3067 was formulated as a 10 mg/mL solution (20% DMSO, 80% PEG400: PVP 95:5) and administered by oral gavage at a dose of 100 mg/kg. Plasma and brain samples were collected at 1, 4, and 8 h. Samples were analyzed by LC-MS/MS. A calibration curve was established using Waters ACQUITY UPLC BEH C18 column and formic acid in water and formic acid in acetonitrile as mobile phase. Tolbutamide and labetalol were used as internal standards for LC-MS/MS analysis. Compound was detected using electrospray ionization (ESI) positive detection. Pharmacokinetic parameters were calculated using the PO-noncompartmental linear model in Phoenix WinNonlin software v8.3 (Certara, Princeton, NJ, USA).

Question: Which solubility kinetic at 1 h [1] does the source give for `CO[C@H]1C[C@@H](C(=O)NC(=O)Nc2ccc(Oc3ccc(Cl)cn3)c(C)c2)C1` [RGN3067] here?
Answer: 5.7 µM (≈ 2.22 µg/mL)

Question: What about the fraction unbound at 5 h, 5 µM [2] of the same molecule?
Answer: 0.018 to 0.026

Question: And the efflux ratio at 90 min, 2 µM ([3]; Papp basal-to-apical / apical-to-basal)?
Answer: 0.61

Question: What about the Papp at 90 min, 2 µM ([3]; read-out: apparent permeability coefficient) of the same molecule?
Answer: 22.7 ×10⁻⁶ cm/s

Question: What about the “inhibition of cell viability” value [4] of the same molecule?
Answer: does not significantly inhibit

Question: And the “reduction in tubulin polymerization (AUC)” value [5]?
Answer: 49%

Question: What about the “reduction of colchicine–tubulin fluorescence relative to control” value [6] of the same molecule?
Answer: 24%

Question: What about the IC50 ([7]; U87, compound left in medium, 72 h, read-out: IC50 cell viability, no-washout) of the same molecule?
Answer: 571 nM

Question: And the IC50 ([7]; U87, compound washed out after 6 h, then 72 h, read-out: IC50 cell viability, after washout)?
Answer: > 10000 nM

Question: And the “distribution in plasma and brain” value [8]?
Answer: equal distribution in plasma and brain at all time points
